{
  "source": "patent US9115117B2",
  "about": "“Substituted piperidine compounds and their use as orexin receptor modulators” (JANSSEN PHARMACEUTICA NV, priority 2013, dated 2015)",
  "key": {"rat orexin 1 receptor": {"target": "rat orexin 1 receptor (Rattus norvegicus, UniProt P56718)", "experiment": "Rat orexin 1 receptor radioligand binding", "conditions": "HEK293 cells stably expressing rat orexin 1 receptor; apparent Ki; read-out: rOX1 Ki", "procedure,_shortened": "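Homogenized cell suspensions competed against 4 nM final of a tritiated oxadiazolyl-pyrrolidinyl thiazole methanone radioligand (35.3 Ci/mmol) in PBS, with DMSO ≤0.1%. Nonspecific binding defined with 10 μM almorexant; after washing and drying, bound radioactivity counted by scintillation.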"}, "human orexin 1 receptor": {"target": "human orexin 1 receptor (Homo sapiens, UniProt O43613)", "experiment": "Human orexin 1 receptor radioligand binding", "conditions": "CHO cells stably expressing human orexin 1 receptor; apparent Ki; read-out: hOX1 Ki", "procedure,_shortened": "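Homogenized CHO cells stably expressing human orexin 1 receptor, in PBS. They were incubated 60 min at room temperature with 4 nM final tritiated thiazolyl-pyrrolidinyl-methanone radioligand, DMSO ≤0.1%. Nonspecific binding taken with 10 μM almorexant; bound radioactivity collected by GF/C filtration and scintillation-counted.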"}, "human orexin 2 receptor": {"target": "human orexin 2 receptor (Homo sapiens (Human), UniProt O43614)", "sequence (O43614 whole entry)": "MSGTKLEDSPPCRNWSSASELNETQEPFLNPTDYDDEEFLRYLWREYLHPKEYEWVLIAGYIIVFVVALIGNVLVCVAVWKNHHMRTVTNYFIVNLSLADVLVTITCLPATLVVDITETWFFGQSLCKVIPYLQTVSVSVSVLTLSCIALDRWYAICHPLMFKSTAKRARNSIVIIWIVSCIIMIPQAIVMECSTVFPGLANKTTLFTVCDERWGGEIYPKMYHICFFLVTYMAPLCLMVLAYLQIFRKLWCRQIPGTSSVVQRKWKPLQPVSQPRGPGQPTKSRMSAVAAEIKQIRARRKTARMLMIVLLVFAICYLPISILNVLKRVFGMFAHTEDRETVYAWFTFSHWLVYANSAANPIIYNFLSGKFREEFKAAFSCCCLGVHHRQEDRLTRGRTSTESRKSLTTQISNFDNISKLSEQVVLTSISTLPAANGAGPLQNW", "experiment": "Human orexin 2 receptor radioligand binding ([3H]-EMPA)", "conditions": "HEK293 stably expressing human orexin 2 receptor; [3H]-EMPA; apparent Ki; read-out: hOX2 Ki", "procedure,_shortened": "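Competition binding with 2 nM final [3H]-EMPA in PBS against homogenized whole-cell suspension; DMSO ≤0.1%. Nonspecific binding defined with […] almorexant. Plates washed with PBS, dried, and bound radioactivity counted by scintillation.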"}},
  "note": "pKi: −log10 of the molar value.",
  "data": [
    {"smiles": "C[C@H]1[C@H](Nc2cnc(C(F)(F)F)cn2)CCCN1C(=O)c1cc(F)ccc1-n1nccn1", "note": "[Example 90, (5-fluoro-2-(2H-1,2,3-triazol-2-yl)phenyl)((2S,3R)-2-methyl-3-((5-(trifluoromethyl)pyrazin-2-yl)amino)piperidin-1-yl)methanone]", "values": [
      {"measurement": "pKi", "setting": "rat orexin 1 receptor", "value": 7.70},
      {"measurement": "pKi", "setting": "human orexin 1 receptor", "value": 7.72},
      {"measurement": "pKi", "setting": "human orexin 2 receptor", "value": 6.31}
    ]},
    {"smiles": "Cc1ccc(C(=O)N2CCC[C@@H](Nc3ncc(Cl)cn3)[C@@H]2C)c(-n2nccn2)c1", "note": "[Example 91, ((2S,3R)-3-((5-chloropyrimidin-2-yl)amino)-2-methylpiperidin-1-yl)(4-methyl-2-(2H-1,2,3-triazol-2-yl)phenyl)methanone]", "values": [
      {"measurement": "pKi", "setting": "rat orexin 1 receptor", "value": 7.49},
      {"measurement": "pKi", "setting": "human orexin 1 receptor", "value": 7.32},
      {"measurement": "pKi", "setting": "human orexin 2 receptor", "value": 5.68}
    ]},
    {"smiles": "Cc1cnc(C(=O)N2CCC[C@@H](Nc3ccc(Br)cn3)[C@@H]2C)c(-n2nccn2)c1", "note": "[Example 92, ((2S,3R)-3-((5-bromopyridin-2-yl)amino)-2-methylpiperidin-1-yl)(5-methyl-3-(2H-1,2,3-triazol-2-yl)pyridin-2-yl)methanone]", "values": [
      {"measurement": "pKi", "setting": "rat orexin 1 receptor", "value": 7.72},
      {"measurement": "pKi", "setting": "human orexin 1 receptor", "value": 7.74},
      {"measurement": "pKi", "setting": "human orexin 2 receptor", "value": 5.38}
    ]},
    {"smiles": "Cc1ccc(C(=O)N2CCC[C@@H](Nc3ccc(C(F)(F)F)cn3)[C@@H]2C)c(-n2ccnn2)n1", "note": "[Example 93, (6-methyl-2-(1H-1,2,3-triazol-1-yl)pyridin-3-yl)((2S,3R)-2-methyl-3-((5-(trifluoromethyl)pyridin-2-yl)amino)piperidin-1-yl)methanone]", "values": [
      {"measurement": "pKi", "setting": "rat orexin 1 receptor", "value": 7.28},
      {"measurement": "pKi", "setting": "human orexin 1 receptor", "value": 7.42},
      {"measurement": "pKi", "setting": "human orexin 2 receptor", "value": 5.57}
    ]},
    {"smiles": "Cc1cnc(C(=O)N2CCC[C@@H](Nc3ncc(C(F)(F)F)cn3)[C@@H]2C)c(-n2nccn2)c1", "note": "[Example 94, ((2S,3R)-2-methyl-3-((5-(trifluoromethyl)pyrimidin-2-yl)amino)piperidin-1-yl)(5-methyl-3-(2H-1,2,3-triazol-2-yl)pyridin-2-yl)methanone]", "values": [
      {"measurement": "pKi", "setting": "rat orexin 1 receptor", "value": 7.42},
      {"measurement": "pKi", "setting": "human orexin 1 receptor", "value": 7.60},
      {"measurement": "pKi", "setting": "human orexin 2 receptor", "value": "< 5.00"}
    ]},
    {"smiles": "COc1ccc(C(=O)N2CCC[C@@H](Nc3ncc(C(F)(F)F)cn3)[C@@H]2C)c(-n2nccn2)c1", "note": "[Example 95, (4-methoxy-2-(2H-1,2,3-triazol-2-yl)phenyl)((2S,3R)-2-methyl-3-((5-(trifluoromethyl)pyrimidin-2-yl)amino)piperidin-1-yl)methanone]", "values": [
      {"measurement": "pKi", "setting": "rat orexin 1 receptor", "value": 7.09},
      {"measurement": "pKi", "setting": "human orexin 1 receptor", "value": 6.99},
      {"measurement": "pKi", "setting": "human orexin 2 receptor", "value": "< 5.00"}
    ]},
    {"smiles": "Cc1ccc(C(=O)N2CCC[C@@H](Nc3cnc(C(F)(F)F)cn3)[C@@H]2C)c(-n2ccnn2)n1", "note": "[Example 96, (6-methyl-2-(1H-1,2,3-triazol-1-yl)pyridin-3-yl)((2S,3R)-2-methyl-3-((5-(trifluoromethyl)pyrazin-2-yl)amino)piperidin-1-yl)methanone]", "values": [
      {"measurement": "pKi", "setting": "rat orexin 1 receptor", "value": 7.09},
      {"measurement": "pKi", "setting": "human orexin 1 receptor", "value": 7.33},
      {"measurement": "pKi", "setting": "human orexin 2 receptor", "value": 5.41}
    ]},
    {"smiles": "COc1ccc(C(=O)N2CCC[C@@H](Nc3ccc(C(F)(F)F)cn3)[C@@H]2C)c(-n2nccn2)c1", "note": "[Example 97, (4-methoxy-2-(2H-1,2,3-triazol-2-yl)phenyl)((2S,3R)-2-methyl-3-((5-(trifluoromethyl)pyridin-2-yl)amino)piperidin-1-yl)methanone]", "values": [
      {"measurement": "pKi", "setting": "rat orexin 1 receptor", "value": 7.36},
      {"measurement": "pKi", "setting": "human orexin 1 receptor", "value": 7.49},
      {"measurement": "pKi", "setting": "human orexin 2 receptor", "value": 5.21}
    ]},
    {"smiles": "Cc1ccc(C(=O)N2CCC[C@@H](Nc3ccc(C(F)(F)F)cn3)[C@@H]2C)c(-n2nccn2)n1", "note": "[Example 98, (6-methyl-2-(2H-1,2,3-triazol-2-yl)pyridin-3-yl)((2S,3R)-2-methyl-3-((5-(trifluoromethyl)pyridin-2-yl)amino)piperidin-1-yl)methanone]", "values": [
      {"measurement": "pKi", "setting": "rat orexin 1 receptor", "value": 7.59},
      {"measurement": "pKi", "setting": "human orexin 1 receptor", "value": 7.92},
      {"measurement": "pKi", "setting": "human orexin 2 receptor", "value": "< 5.00"}
    ]},
    {"smiles": "Cc1ccc(C(=O)N2CCC[C@@H](Nc3ccc(Cl)cn3)[C@@H]2C)c(-n2nccn2)c1", "note": "[Example 99, ((2S,3R)-3-((5-chloropyridin-2-yl)amino)-2-methylpiperidin-1-yl)(4-methyl-2-(2H-1,2,3-triazol-2-yl)phenyl)methanone]", "values": [
      {"measurement": "pKi", "setting": "rat orexin 1 receptor", "value": 7.64},
      {"measurement": "pKi", "setting": "human orexin 1 receptor", "value": 7.82},
      {"measurement": "pKi", "setting": "human orexin 2 receptor", "value": 5.85}
    ]},
    {"smiles": "Cc1cnc(C(=O)N2CCC[C@@H](Oc3ncc(C(F)(F)F)cn3)[C@@H]2C)c(-n2nccn2)c1", "note": "[Example 101, ((2S,3R)-2-methyl-3-((5-(trifluoromethyl)pyrimidin-2-yl)oxy)piperidin-1-yl)(5-methyl-3-(2H-1,2,3-triazol-2-yl)pyridin-2-yl)methanone]", "values": [
      {"measurement": "pKi", "setting": "rat orexin 1 receptor", "value": 6.67},
      {"measurement": "pKi", "setting": "human orexin 1 receptor", "value": 6.35},
      {"measurement": "pKi", "setting": "human orexin 2 receptor", "value": "< 5.00"}
    ]},
    {"smiles": "Cc1ccc(C(=O)N2CCC[C@@H](Oc3ncc(C(F)(F)F)cn3)[C@@H]2C)c(-n2nccn2)c1", "note": "[Example 102, (4-methyl-2-(2H-1,2,3-triazol-2-yl)phenyl)((2S,3R)-2-methyl-3-((5-(trifluoromethyl)pyrimidin-2-yl)oxy)piperidin-1-yl)methanone]", "values": [
      {"measurement": "pKi", "setting": "rat orexin 1 receptor", "value": 7.55},
      {"measurement": "pKi", "setting": "human orexin 1 receptor", "value": 7.60},
      {"measurement": "pKi", "setting": "human orexin 2 receptor", "value": 5.28}
    ]},
    {"smiles": "C[C@H]1[C@H](Oc2ncc(C(F)(F)F)cn2)CCCN1C(=O)c1ccccc1-n1nccn1", "note": "[Example 103, (2-(2H-1,2,3-triazol-2-yl)phenyl)((2S,3R)-2-methyl-3-((5-(trifluoromethyl)pyrimidin-2-yl)oxy)piperidin-1-yl)methanone]", "values": [
      {"measurement": "pKi", "setting": "rat orexin 1 receptor", "value": 7.36},
      {"measurement": "pKi", "setting": "human orexin 1 receptor", "value": 7.01},
      {"measurement": "pKi", "setting": "human orexin 2 receptor", "value": 5.64}
    ]},
    {"smiles": "Cc1ccc(-n2nccn2)c(C(=O)N2CCC[C@@H](Oc3ncc(C(F)(F)F)cn3)[C@@H]2C)n1", "note": "[Example 104, ((2S,3R)-2-methyl-3-((5-(trifluoromethyl)pyrimidin-2-yl)oxy)piperidin-1-yl)(6-methyl-3-(2H-1,2,3-triazol-2-yl)pyridin-2-yl)methanone]", "values": [
      {"measurement": "pKi", "setting": "rat orexin 1 receptor", "value": 6.92},
      {"measurement": "pKi", "setting": "human orexin 1 receptor", "value": 6.76},
      {"measurement": "pKi", "setting": "human orexin 2 receptor", "value": "< 5.00"}
    ]},
    {"smiles": "Cc1ccc(C(=O)N2CCC[C@@H](Oc3ccc(C(F)(F)F)cn3)[C@@H]2C)c(-n2nccn2)c1", "note": "[Example 112, (4-methyl-2-(2H-1,2,3-triazol-2-yl)phenyl)((2S,3R)-2-methyl-3-((5-(trifluoromethyl)pyridin-2-yl)oxy)piperidin-1-yl)methanone]", "values": [
      {"measurement": "pKi", "setting": "rat orexin 1 receptor", "value": 8.10},
      {"measurement": "pKi", "setting": "human orexin 1 receptor", "value": 7.92},
      {"measurement": "pKi", "setting": "human orexin 2 receptor", "value": 6.25}
    ]}
  ]
}
